US8367659B2, “Oxazinyl isoflavonoid compounds, medicaments and use” (Marshall Edwards, Inc., priority 2007, dated 2013)

Legend:
MM200 = test: Anti-cancer activity, MM200 melanoma cells (MTT); type: cell-based; conditions: 120 h; 5 days, MTT
CP70 = test: Anti-cancer activity, CP70 ovarian cancer cells (MTT); type: cell-based; conditions: 120 h, 5 days
HPAC = test: Anti-cancer activity, HPAC pancreatic cancer cells (MTT); type: cell-based; conditions: Homo sapiens, 120 h, 5 days
[1] = test system: Rabbit kidney (RK-13) cells; test: Toxicity to normal cells, rabbit kidney (RK-13) cells; type: cell-based; conditions: Oryctolagus cuniculus, normal, non-transformed cells, read-out: IC50 μM, RK Rabbit Kidney
Experimental: (§1) IC50 values were determined for each cell line. Cells were seeded in 96-well plates at an appropriate cell density as determined from growth kinetics analysis and cultured for 5 days in the absence and presence of the test compounds. Cell proliferation was assessed after the addition of 20 μl of 3-4,5 dimethylthiazol-2,5-diphenyl tetrazolium bromide (MTT, 2.5 mg/ml in PBS, Sigma) for 3-4 hrs at 37° C. according to manufacturer's instructions. IC50 values were calculated from semi-log plots of % of control proliferation on the y-axis against log dose on the x-axis.
(§2) The neonatal foreskin fibroblasts (NFF) were a gift from Dr. Peter Parsons (Queensland Institute of Medical Research). Rabbit kidney (RK-13) cells were obtained from Miller Whalley (Macquarie University). Both cell lines were cultured in RPMI supplemented with 10% FCS(CSL, Australia), penicillin (100 U/ml), streptomycin ([…]), L-glutamine (2 mM) and sodium bicarbonate (1.2 g/L), and cultured at 37° C. in a humidified atmosphere of 5% CO2. IC50 values were determined as described above.

[2] = test system: TNFα synthesis in RAW 264.7 murine macrophages; test: LPS-induced TNFα synthesis in RAW 264.7 murine macrophages; type: cell-based, mouse; conditions: 10 μM; relative to vehicle alone; FIG. 5
Experimental: The mouse macrophage cell line RAW 264.7 was cultured in DMEM supplemented with foetal calf serum (FCS), […] glutamine and 50 U/ml penicillin/streptomycin. Cells were treated with either test compound (in 0.025% DMSO) or vehicle alone, and added one hour before 50 ng/ml LPS. After incubation for 24 h, culture media was collected for PGE2 or TXB2 measurement by ELISA (Cayman Chemical), and TNFα measurement using an ELISA (Becton Dickinson). Test compounds were examined a concentration of 10 μM. […] Consequently, to assess the effect of test compounds on various analytes, cell viability was taken into consideration with the use of the formula: Actual effect of test compound=measured effect−(effect on cell viability×measured effect)

cancer cell lines = test: Anti-cancer activity, cancer cell lines tested as a group (MTT); type: cell-based
[3] = test system: human umbilical vein smooth muscle cells (HUVSMC); test: Proliferation of human umbilical vein smooth muscle cells (MTT); type: cell-based; conditions: 10 μM; 10% FCS, 5 days; FIG. 8
Experimental: The effect of test compounds on human umbilical vein smooth muscle cells (HUVSMC) was examined. Cells were seeded into 96 well plates at a low seeding rate of 1.6×10^3 cells per well, and allowed to attach for 24 hours. The cells were then washed twice with medium without FCS and incubated in medium without FCS for 20 hours to serum starve them. Analogue was prepared in medium without FCS at 20 μM and added to the plates and incubated for one hour. Final analogue concentration was therefore 10 μM. The cells were then stimulated by adding medium +20% FCS, to give a final FCS concentration of 10%. The cells were incubated until the control cells i.e. those with FCS and no compound, were just confluent (5 days). An MTT assay was performed, and difference in absorbance in analogue treated cells from the control was calculated using the formula: test/control*100−100. Results
The effect of test compounds on human umbilical vein smooth muscle cells (HUVSMC), was examined. Cells, tissue explants from a neonate (HRI—passage 2), were seeded into 96 well plates at 1×10^3 cells per well, and allowed to attach for 24 hours. They were then washed twice and incubated in medium without foetal calf serum (FCS) for 24-48 hours to serum-starve them. Test compounds were prepared in medium without FCS and added to the plates and incubated for one hour. Medium with FCS was added to give a final concentration of 10% and the plates incubated for 4-5 days until the controls were just confluent.

[4] = test system: neonatal foreskin fibroblasts (NFF); test: Toxicity to normal cells, neonatal foreskin fibroblasts; type: cell-based; conditions: Fibroblast; normal, non-transformed cells; read-out: IC50 μM, NFF Fibroblast
Experimental: as §1, §2

[5] = Free radical scavenging with DPPH; conditions: DPPH, 20 minutes, absorbance 517 nm; Table 4; read-out: Free radical scavenging ability EC50
In short: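 Compounds reacted with DPPH in ethanol for 20 min, screened at 100 μM, and absorbance at 517 nm compared with a DPPH-ethanol blank. IC50 was taken as the concentration giving a 0.6 absorbance change, with 1.2 units representing total scavenging.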

[6] = target: T1, GAL4-PPARγ fusion protein (Homo sapiens, UniProt P37231); test: PPARγ activity in transfected HEK293 cells (beta-lactamase reporter); type: cell-based; conditions: FIG. 13: 1 μM
T1 construct: host or cells: HEK293 (human embryonic kidney), stably transfected
In short: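 HEK293 cells stably expressing GAL4-DBD/PPARγ-LBD fusion with beta-lactamase reporter, treated with compound at 1, 5 and 10 μM for 16-18 h. Beta-lactamase read via FRET substrate (2 h, room temperature), ex 409 nm, em 460/530 nm; background-subtracted emission ratio.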

HT29 = test: Anti-cancer activity, HT-29 colon adenocarcinoma cells (MTT); type: cell-based; conditions: Homo sapiens, HT-29, 120 h, 5 days, read-out: IC50 μM, HT29 Colorectal
NCI-H460 = test: Anti-cancer activity, NCI-H460 large cell lung cancer cells (MTT); type: cell-based; conditions: Homo sapiens, NCI-H460, 120 h, 5 days, read-out: IC50 μM, NCI-H460 Lung (NSCLC)
MDA-MB-468 = test: Anti-cancer activity, MDA-MB-468 breast cancer cells (MTT); type: cell-based; conditions: Homo sapiens, MDA-MB-468, 120 h, 5 days

T1 sequence (P37231 238-503 limits assumed): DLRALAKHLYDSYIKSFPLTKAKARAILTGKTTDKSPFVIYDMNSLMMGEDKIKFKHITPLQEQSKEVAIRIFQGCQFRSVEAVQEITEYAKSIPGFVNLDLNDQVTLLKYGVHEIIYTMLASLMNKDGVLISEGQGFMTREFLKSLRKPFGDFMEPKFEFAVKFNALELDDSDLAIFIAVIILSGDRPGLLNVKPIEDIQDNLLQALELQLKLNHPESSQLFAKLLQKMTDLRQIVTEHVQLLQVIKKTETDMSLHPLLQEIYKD
T1 sequence (P04386 1-147 partner limits assumed): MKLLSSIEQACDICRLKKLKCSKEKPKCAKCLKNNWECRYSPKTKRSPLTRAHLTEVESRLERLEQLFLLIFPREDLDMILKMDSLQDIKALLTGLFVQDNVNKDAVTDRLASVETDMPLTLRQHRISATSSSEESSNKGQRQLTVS

## COCCCN1COc2cc3c(cc2C1)C=C(c1cccc(O)c1)CO3 [Compound 17, 3-(3-(3-Methoxypropyl)-2,3,4,8-tetrahydrochromeno[6,7-e][1,3]oxazin-7-yl)phenol]
MM200
  IC50: 2.3 µM
CP70
  IC50: 4.5 µM
HPAC
  IC50: 5.3 µM
[1]
  IC50: 5.5 µM
[2]
  mean change of LPS-induced TNFα synthesis: greatest inhibition
Cancer cell lines; CP70, HPAC and MM200
  activity against CP70, HPAC and MM200 cell lines: active
Cancer cell lines; read-out: most potent activity against the respective cell lines tested
  IC50: 1 to 5 µM
[3]
  effect on proliferation of HUVSMCs induced by FCS: significantly inhibited the proliferation
[4]
  IC50: 55.9 µM
[5]
  EC50: 40 µM

## CCCN1COc2cc3c(cc2C1)C=C(c1ccc(O)cc1)C(CC)O3 (centres unmarked) [Compound 27, 4-(8-Ethyl-3-propyl-2,3,4,8-tetrahydrochromeno[6,7-e][1,3]oxazin-7-yl)phenol]
MM200
  IC50: 23.2 ± 1.1 µM
[6]
  PPARγ activation, increase in beta-lactamase activity over media only control: PPARγ agonist activity
CP70
  IC50: 10.9 ± 1.5 µM
HPAC
  IC50: 12.4 ± 4 µM
HT29
  IC50: 50.8 ± 1 µM
[1]
  IC50: 14.5 ± 1 µM
NCI-H460
  IC50: 17.8 ± 1.1 µM
MDA-MB-468
  IC50: 14.9 ± 1 µM
[4]
  IC50: 40.3 ± 1.2 µM
[5]
  EC50: 26 µM
